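Step 1: Grow cells in 96-well plates. Step 2: Expose to compound for 48 hours at 5 concentrations. Step 3: Interpolate endpoints linearly; if unreached, use highest concentration. Here, GI50 denotes the concentration required for 50% inhibition of growth. TGI is the concentration that stops growth completely.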 Where only a bound is given, the exact number is not on record here.

Drawing on PubChem BioAssay (NCI), this text covers GI50 and TGI for one compound.

Holding throughout (assay): DTP human tumour cell line panel, 48 h
For test [1], the system named is A549 NSCLC.
For test [2], the system named is BT-549 breast.
Test [3] has as its system CAKI-1 renal.
The subject of test [4] is HCT-15 colon.
Test [5] concerns HOP-62 NSCLC.
For test [6], the system named is LOX IMVI melanoma.
Test [7] deals with OVCAR-3 ovarian.
The test system of test [8] is RPMI-8226 leukemia.
The subject of test [9] is SR leukemia.
For test [10], the system named is UACC-62 melanoma.

For the compound `COC(=O)COc1ccc(/C=C2\N=C(c3ccccc3)N(c3cc(C(F)(F)F)ccc3Cl)C2=O)cc1`, the GI50 – broadly, the concentration giving 50% growth inhibition – is over 100 µM in test [1]; 28.1 µM in test [2]; over 100 µM in test [3]; 94.6 µM in test [4]; 64.9 µM in [5]; 21.8 µM in test [6]. In addition, the GI50 in [7] is 26.1 µM; in [8], 19 µM; in [9], 19.3 µM; in [10] it was over 100 µM. Moreover, the TGI – broadly, the concentration at which net growth stops – in test [1] was over 100 µM; in test [2] it was 94.2 µM; in test [3] it was over 100 µM; in [4] it was over 100 µM; in test [5], over 100 µM; in test [6], 53.3 µM. Also, the TGI in [7] is 96.8 µM; in [8] it was 46.1 µM; in test [9], 54.9 µM; in test [10], over 100 µM.
